Assays:
HepG2 cells [1] = test: Phase contrast microscopy, cell size; format: cell-based, Human; conditions: 9NC-treated cells
Excerpt: After 3 to […] of treatment the morphology of the cells remained stable with very little change during the three to four week culture period. Overall, cells appeared to be healthy and metabolically active, and resembled the morphology of primary human hepatocytes grown on plastic surfaces. Virtually no cell proliferation was observed following removal of 9NC and the cells maintained a differentiated phenotype without growth.

HepG2 cells [2] = test: BrdU incorporation ELISA, DNA synthesis; format: cell-based, Human; conditions: 20 nM; 72 h
Procedure: (§1) Human hepatoblastoma cells, HepG2 cells were obtained from the American Type Culture Collection and maintained in RPMI-1640 medium (GIBCO, Grand Island, N.Y.) supplemented with 10% fetal bovine serum (GIBCO), 100 units/ml of penicillin, […] of streptomycin, […] of amphotericin (Sigma Chemical Co.), and 4 mM L-glutamine (GIBCO). The cell cultures were incubated at 37° C. in a humidified CO2 (5%) atmosphere. The cell number in untreated and 9NC-treated cultures was determined with the aid of cell counter (Coulter Electric, Inc., Hialeah, Fla.) and cell viability was monitored by trypan blue dye exclusion.
DNA synthesis was measured by 5-bromo-2′-deoxy-uridine (BrdU) incorporation into cellular DNA following 24 h and 72 h. treatment with 9NC using the Cell Proliferation Assay Kit-BrdU/ELISA (Boehringer Mannheim Corp.). Inhibition of DNA synthesis correlated with the length of 9NC treatment and the concentration of 9NC in the cell culture.

[3] = tested on: SDI-1 mRNA in HepG2 cells; test: Northern blot of SDI-1 mRNA (SDI-1/GAPDH) in 9NC-treated cells; format: cell-based, Human
Procedure: Therefore, initial studies to evaluate the levels of SDI-1 were performed with low doses of 9NC. Total RNA was isolated from HepG2 cells treated with 5 nM and 20 nM 9NC for 72 h and the levels of SDI-1 mRNAs expression in cells were examined by Northern blot hybridization analysis. […] The relative amount of SDI-1 mRNA in each sample was calculated as the ratio of SDI-1/GAPDH.
Caffeine abolishes G2 cell cycle checkpoint induced by DNA-damaging agents (Traganos, F. et al., Canc. Res. 53:4613-4618 (1993); Lau, C. C. et al., Proc. Natl. Acad. Sci. (U.S.A.) 79:2942-2946 (1982)). To assess the specificity of SDI-1 induction by 9NC, the levels of SDI-1 expressions were evaluated via Northern blot analysis after simultaneous addition of caffeine (1 mM) and 9NC. […] To establish the kinetics of 9NC-induced upregulation of SDI-1 gene, the cells cultured for 24 h in control medium were treated with 20 nM of 9NC for 0.5 h, 1.5 h, 3 h, 6 h, 12 h, and 24 h respectively.

HepG2 cells [4] = test: Cell number by cell counter; format: cell-based, Human; conditions: 20 nM; 72 h
Procedure: as §1
This inhibitory effect was not associated with cell death as assessed by trypan blue dye exclusion.

HepG2 cells [5] = test: Cell Proliferation Kit-XTT, metabolic activity; format: cell-based, Human; conditions: 20 nM; 72 h
Procedure: The effect of 9NC (5 to 80 nM) on cell proliferation and DNA synthesis was evaluated by the Cell Proliferation Kit-XTT (Boehringer Mannheim Corp., IN), a non-radioactive, calorimetric ELISA assay which reflects mitochondrial dehydrogenase activity. The assay is based on the cleavage of the yellow tetrazolium salt XTT to form an orange formazan dye by dehydrogenase activity in active mitochondria. This conversion occurs only in living cells and correlates with their overall metabolic activity.
as §1
9NC was semisynthesized from CPT and purified as described by Wani, M. C. et al. (J. Med. Chem. 29:2358-2363 (1986)). A fine suspension of 9NC (10 μM) was prepared in polyethylene glycol (PEG 400; Aldrich, Milwaukee, Wis.), divided into small aliquots and stored at −80° C. until used. […]

SDI-1 mRNA = test: Northern analysis of SDI-1 RNA after DNA damaging / growth arrest agents; conditions: bleomycin 75 μg/ml 4 hr; etoposide 400 μM 8 hr; H2O2 400 μM 1 hr; MMS 100 μg 4 hr; Mitomycin C 5 μg/ml 30 hr; CdCl2 250 μM 1 hr; hydroxyurea 2 mM 24 hr; prostaglandin A2 10 μg/ml 24 hr
Procedure: (§2) To evaluate the effect of DNA damaging agents on SDI mRNA production, normal human neonatal foreskin fibroblast cells (strain HCA2); an immortalized cell line (TE85, obtainable from the American Type Culture Collection, Rockville, Md., US), and the above-described MDAH 041 cell lines were employed. All cells were cultured in Eagle's minimal essential medium with Earl's salts plus 10% fetal bovine serum (Gibco BRL, Gaithersburg, Md., US) in 5% CO2 at 37° C., or in Hanks salts plus 10% fetal bovine serum at 37° C. HCA2 cells achieve approximately 80 population doublings before becoming senescent. The cells were used at population doubling 27 or less.
(§3) For UV irradiation, cells were cultured in 150 cm^2 tissue culture dishes. Immediately prior to treatment the medium was removed and the dishes, without lids, were placed in a Stratagene (La Jolla, Calif., US) StratalinkerUV cross-linking device and irradiated with a dose of 30 J/m^2. Fresh serum-supplemented medium was then added and the cells were incubated at 37° C., 5% CO2. γ-irradiation was performed on cells in complete cell culture medium in 25 cm^2 tissue culture flasks, using a fixed ^137Cs source. The dose rate was 4.21 Gy/min. Exposure was to 4 Gy.
(§4) Tritiated thymidine was added 16 hours following each such treatment and the cells were incubated for 8 hours, fixed and processed for autoradiography; as described above. RNA was harvested 4 or 24 hours post treatment using RNAzol B (Cinna/Biotecx, Houston, Tex.) according to the manufacturer's protocol. 10-20 μg of RNA was separated on a 1.2% agarose gel with 20% formaldehyde, transferred to a Gene screen plus (EN, Boston, Mass.) membrane, probed, and quantitated. Fold induction was determined by comparing treated samples with untreated controls. Controls were mock treated cells put through the same washing, media change, transportation, and inadvertent temperature fluctuation as those receiving treatment. Controls for agents dissolved in ethanol or dimethyl sulfoxide were exposed to the same concentration of the solvent alone. SDI-1 RNA values were normalized to GAPBH levels.

[6] = tested on: normal human neonatal foreskin fibroblast cells (strain HCA2); test: Growth arrest by tritiated thymidine incorporation after DNA damaging / growth arrest agents; format: cell-based; conditions: doses as in Table 10; tritiated thymidine added 16 hours after treatment for 8 hours
Procedure: as §2, §3, §4

SDI-1 message in TE85 = test: SDI-1 message level after agents in cells lacking functional p53; format: cell-based, human; conditions: TE85 (mutant p53); agents of Table 10
Procedure: as §2, §4
(§5) This gene also requires functional p53 for induction by γ-irradiation but not by most other agents (Zhan, Q. et al., Molec. Cell. Biol. 13:4242-4250 (1993)). GADD45 is a member of a family of genes that were identified based upon their induction by both growth arrest and DNA damage (Fornace, A. J. et al., Molec. Cell. Biol. 9:4196-4203 (1989)). […] The above methods can be used to identifiy such additional regulators.

[7] = tested on: SDI-1 message in MDAH 041; test: as above; format: cell-based, human; conditions: MDAH 041 (no p53); agents of Table 10
Procedure: as §2, §4, §5

[8] = tested on: cells in medium containing 0.5% FBS; test: SDI-1 antisense oligonucleotide, tritiated thymidine incorporation in low serum; format: cell-based; conditions: 1, 2 or 5 μM on Days 1, 3, 5; harvested day 7
Procedure: Cells were cultured in medium containing 10% fetal bovine serum (FBS) for approximately one week, at which time the medium was replaced with medium containing 0.5% FBS. The cells were divided into control cells and experimental cells. On Day 1, experimental cells were provided with either 1, 2 or 5 μM of the above-described oligonucleotide; Control cells received no oligonucleotide. On Day 3, and again on Day 5, all cells received fresh medium containing 0.5% FBS; experimental cells received additional oligonucleotides (1, 2 or 5 μM). On Day 6, tritiated thymidine was added to the culture media and the cells were harvested on day 7.

cyclin/cdk2 complexes = molecular target: T1, cyclin/cdk2 complexes (Homo sapiens, UniProt P24941); test: Histone H1 kinase activity of cyclin/cdk2 complexes immunoprecipitated from HeLa cell extracts; format: biochemical; conditions: complexes immunoprecipitated by cdk2 antisera
T1 construct: immunoprecipitated from HeLa cell extracts by cdk2 antisera; endogenous in cells; host or cells: HeLa cell extracts, immunoprecipitated with cdk2 antisera
Excerpt: The physiological significance of inhibition of cell proliferation by overexpression of SDI-1 is strengthened by the finding that SDI-1 can inhibit the kinase activity of cyclin/cdk2 complexes.
[…]

young cells = test: Cellular uptake of GST-SDI-1 fusions and quiescence; format: cell-based
cdk2 protein = molecular target: T2, cdk2 protein (Homo sapiens, UniProt P24941); test: Binding of in vitro translated SDI-1 deletion mutants to purified cdk2, anti-cdk2 immunoprecipitation; conditions: 45 μl translation product, 1 ug cdk2, 4° C.
T2 construct: host or cells: baculovirus expression system
Procedure: To determine whether the DNA synthesis inhibition caused by these mutants was occurring through inhibition of cdk kinases, the binding of in vitro translated deletion mutant proteins products with purified cdk2protein was examined. Thus, the various deletion mutants of SDI-1 were translated in reticulocyte lysates (Promega) using pBluescript based plasmids as transcription templates for the T7 RNA polymerase. For in vitro binding, 45 μl of the translation product was added to 500 μl binding buffer (50 mM Tris/HCl, pH 7.5, 120 mM NaCl, 2 mM EDTA, 0.1% NP-40, 1 mM NaF, 0.1 m.M sodium vanidate, 5 μg/ml leupeptin, 5 μg/ml soybean trypsin inhibitor, 5 μg/ml aprotinin) containing 1 ug cdk2 protein purified from a bacculovirus expression system. The mixture was gently rocked for 1 hour at 4° C. and then 7.5 μg anti-cdk2 rabbit polyclonal antibody was added. Mixing was continued for 1 hour at 4° C. The immunocomplex was absorbed by incubation with 40 μl protein G plus A beads for 2 hr. The matrices were then washed three times with 0.5 ml of binding buffer prior to electrophoresis and autoradiography.

Molecule: CC[C@@]1(O)C(=O)OCc2c1cc1n(c2=O)Cc2cc3c([N+](=O)[O-])cccc3nc2-1 [9NC]
- increased cell size (HepG2 cells [1]): 2 to 5 fold
- decrease in DNA synthesis (HepG2 cells [2]): at least 4 fold
- time at which SDI-1 gene expression reached maximum ([3]; 20 nM, 0.5-24 h): 24 h
- increase in SDI-1 expression (SDI-1/GAPDH) ([3]; 20 nM, 72 h): At least 3 fold
- decrease in cell numbers (HepG2 cells [4]): at least 2 fold
- suppression of metabolic activity (HepG2 cells [5]): approximately 20%

Molecule: [Cl][Cd][Cl] [CdCl2, cadmium chloride]
- SDI-1 Level (Fold induction of SDI-1 at 24 hour level) (SDI-1 mRNA): 1.3 Fold induction
- % Growth Arrest [6]: 0%

Molecule: OO [H2O2, hydrogen peroxide]
- SDI-1 message level (Control = 1) (SDI-1 message in TE85): 4.0
- SDI-1 message level (Control = 1) [7]: 3.3
- % Growth Arrest [6]: 95%

Molecule: COS(C)(=O)=O [MMS, methyl methane sulfonate]
- % Growth Arrest [6]: 53%

Molecule: CO[C@@]12[C@H](COC(N)=O)C3=C(C(=O)C(C)=C(N)C3=O)N1C[C@@H]1N[C@@H]12 [Mitomycin C, mitomycin C]
- SDI-1 Level (Fold induction of SDI-1 at 24 hour level) (SDI-1 mRNA): 2.8 Fold induction
- SDI-1 message level (Control = 1) (SDI-1 message in TE85): 2.5
- % Growth Arrest [6]: 100%

Molecule: Cn1c(=O)c2c(ncn2C)n(C)c1=O [caffeine]
- effect on SDI-1 expression ([3]; caffeine (1 mM) alone): no appreciable effect
- effect on 9NC-dependent induction of SDI-1 expression ([3]; simultaneous addition of caffeine (1 mM) and 9NC): abrogated

Molecule: COc1cc([C@@H]2c3cc4c(cc3[C@@H](O[C@@H]3O[C@@H]5CO[C@@H](C)O[C@H]5[C@H](O)[C@H]3O)[C@H]3COC(=O)[C@H]23)OCO4)cc(OC)c1O [etoposide]
- % Growth Arrest [6]: 100%

Molecule: NC(=O)NO [hydroxyurea]
- SDI-1 message level (Control = 1) (SDI-1 message in TE85): 7.5
- SDI-1 message level (Control = 1) [7]: 2.5
- % Growth Arrest [6]: 100%

Molecule: CCCCC[C@H](O)/C=C/[C@H]1C=CC(=O)[C@@H]1C/C=C\CCCC(=O)O [prostaglandin A2]
- SDI-1 Level (Fold induction of SDI-1 at 24 hour level) (SDI-1 mRNA): 6.1 Fold induction
- % Growth Arrest [6]: 100%

Molecule: AGCCGGTTCTGACATGGCG (chemistry not given here) [antisense oligonucleotide]
- tritiated thymidine incorporated into DNA relative to control cells [8]: increase

Molecule: GST-SDI-1 fusion protein: Schistosoma japonicum GST 1-226, hinge Pro-Arg-Gly-Asp-Pro-Pro-Ala, SDI-1; SEQ ID NO:11; printed as SDI-1 in Table 8
- amount giving half maximal inhibition of histone H1 kinase activity (cyclin/cdk2 complexes): 250 ng
- quiescence of exposed young cells (young cells): exhibited quiescence
- detection of fusion protein within the cells (young cells; provided to young cells): detectable within the cells

Molecule: bleomycin
- SDI-1 Level (Fold induction of SDI-1 at 24 hour level) (SDI-1 mRNA): 11.8 Fold induction
- % Growth Arrest [6]: 100%

B1: 72-77: SDI-1 mutant with amino acids 72-77 deleted, HA tagged (protein)
chain: MSEPAGDVRQNPCGSKACRRLFGPVDSEQLSRDCDALMAGCIQEARERWNFDFVTETPLEGDFAWERVRGLPRGLPTGPRRGRDELGGGRRPGTSPALLQGTAEEDHVDLSLSCTLVPRSGEQAEGSPGGPGDSQGRKRRQTSMTDFYHSKRRLIFSKRKP
modifications: left off: small tags and cut ends
notes: SDI-1 mutant with amino acids 72-77 deleted, HA tagged
- binding to purified cdk2 protein (cdk2 protein): bound cdk2 protein efficiently
